The text below walks through data of ChEMBL document CHEMBL5512632, “Unlocking the potential of 1,4-naphthoquinones: A comprehensive review of their anticancer properties” (Eur J Med Chem, 2024).

The test system of assay [1] is MCF7. As to the kind of experiment: Cytotoxicity against human MCF7 cells incubated for 7 days by MTT assay. In kind it is functional, cell-based. The conditions noted are these: MCF7, 168 h. On the technique in general: Tetrazolium dyes change colour on reduction, which living cells bring about.
A short description of assay [2]: Cytotoxicity against human MCF7/LCC9 cells incubated for 7 days by MTT assay. The conditions noted are these: MCF7, 168 h. In kind it is functional, cell-based.
The test system of assay [3] is MCF7. As to the kind of experiment: Antiproliferative activity against human MCF7 cells assessed as inhibition of cell growth incubated for 48 hrs by crystal violet staining based ELISA. The format is functional. As to conditions: MCF7, 48 h. For orientation: ELISA stands for enzyme-linked immunosorbent assay.
In the next assay the test system is EL4. Briefly: Antitumor activity against mouse EL4 cells implanted in C57BL/6 mouse assessed as increase in survival of animal at 2 mg/kg,ip administrated for 5 consecutive days for 3 weeks. The format is functional.
A further assay deals with HL-60. As to the kind of experiment: Cytotoxicity against human HL-60 cells assessed as reduction in cell viability incubated for 48 to 72 hrs by MTT assay. In kind it is functional, cell-based.
For another assay, the system named is MDA-MB-231. Briefly: Antiproliferative activity against human MDA-MB-231 cells assessed as inhibition of cell growth incubated for 48 hrs by crystal violet staining based ELISA. In kind it is functional. The conditions noted are these: MDA-MB-231, 48 h.
Assay [4] can be described thus: Cytotoxicity against human MCF7/LCC2 cells incubated for 7 days by MTT assay. The format is functional, cell-based. The conditions noted are these: MCF7/LCC2, 168 h.

With `CC1=CC(=O)c2c(O)cccc2C1=O` [PLUMBAGIN], the IC50 stood at 1000 nM in the assay with MCF7 [1]; 1000 nM in assay [2]; 1500 nM with MCF7 [3]; 1500 nM with HL-60; 1500 nM in the assay on MDA-MB-231; 1000 nM in assay [4]. In the assay on EL4, the Activity is 80%.

Usually IC50 stands for the concentration at which inhibition is half-maximal.
